Test results: US10206400B2, “Insecticidal compounds based on isoxazoline derivatives” (Syngenta Crop Protection LLC, priority 2009, dated 2019)

Columns and labels:
Type in all cases: in vivo
Spodoptera littoralis = Spodoptera littoralis (Egyptian cotton leafworm) leaf disc spray test; conditions: foliar, 72 h, 200 ppm spray on cotton leaf discs, L1 larvae, mortality, feeding behavior, growth regulation 3 days after treatment
Source text: Cotton leaf discs were placed on agar in a 24-well microtiter plate and sprayed with test solutions at an application rate of 200 ppm. After drying, the leaf discs were infested with 5 L1 larvae. The samples were checked for mortality, feeding behavior, and growth regulation 3 days after treatment (DAT).

Heliothis virescens = Heliothis virescens (tobacco budworm) egg/artificial diet test; conditions: 96 h, 200 ppm (concentration in well 18 ppm), eggs 0-24 h old on artificial diet, 4 days, egg mortality, larval mortality, growth regulation
Experimental: Eggs (0-24 h old) were placed in 24-well microtiter plate on artificial diet and treated with test solutions at an application rate of 200 ppm (concentration in well 18 ppm) by pipetting. After an incubation period of 4 days, samples were checked for egg mortality, larval mortality, and growth regulation.

Plutella xylostella = Plutella xylostella (diamond back moth) artificial diet test; conditions: 144 h, 200 ppm (concentration in well 18 ppm), L2 larvae, 6 days, larval mortality, growth regulation
Experimental: (§1) 24-well microtiter plate (MTP) with artificial diet was treated with test solutions at an application rate of 200 ppm (concentration in well 18 ppm) by pipetting. After drying, the MTP's were infested with L2 larvae (7-12 per well). After an incubation period of 6 days, samples were checked for larval mortality and growth regulation.

Diabrotica balteata = Diabrotica balteata (corn root worm) artificial diet test; conditions: 120 h, 200 ppm (concentration in well 18 ppm), L2 larvae, 5 days, larval mortality, growth regulation
Experimental: as §1, with “A 24-well” for “24-well”, “(6-10” for “(7-12”, “5” for “6”

Myzus persicae = Myzus persicae (green peach aphid), systemic test; conditions: 144 h, roots of infested pea seedlings in test solution, 6 days, mortality, special effects on the plant
Source text: Myzus persicae (Green peach aphid), systemic test: Roots of pea seedlings, infested with an aphid population of mixed ages, are placed directly in the test solutions at an application rate of 12.5 ppm. 6 days after introduction, samples are checked for mortality and special effects on the plant. The following compounds gave at least 80% control of Myzus persicae: A3, B2, B3, B5, B6, B7, B8, B11, B12, C1, C2, C3,C4, C5, C6, C7, D1, E1, E2, G1, G3, G5, G6, H1, H5, H6, H9, H10, H11, H12, H13, H14, H18, H19, H20, H24, H25, and H26.

Thrips tabaci = Thrips tabaci (onion thrips) leaf disc spray test; conditions: foliar, 168 h, 200 ppm spray on sunflower leaf discs, mixed ages, 7 days, mortality
Experimental: [The procedure below names another target; the source lists this target under the same test.] Sunflower leaf discs were placed on agar in a 24-well microtiter plate and sprayed with test solutions at an application rate of 200 ppm. After drying, the leaf discs were infested with an […] population of mixed ages. After an incubation period of 7 days, samples were checked for mortality.

Tetranychus urticae = Tetranychus urticae (two-spotted spider mite) leaf disc spray test; conditions: foliar, 192 h, 200 ppm spray on bean leaf discs, mixed ages, 8 days, egg, larval and adult mortality
Source text: Bean leaf discs on agar in 24-well microtiter plates were sprayed with test solutions at an application rate of 200 ppm. After drying, the leaf discs are infested with mite populations of mixed ages. 8 days later, discs are checked for egg mortality, larval mortality, and adult mortality.

CCN1OC[C@@H](NC(=O)c2ccc(C3=NOC(c4cc(Cl)c(F)c(Cl)c4)(C(F)(F)F)C3)cc2C)C1=O (stereo partly drawn) [Compound C3, 4-[5-(3,5-Dichloro-4-fluoro-phenyl)-5-trifluoromethyl-4,5-dihydro-isoxazol-3-yl]-2-methyl-N-((R)-2-ethyl-3-oxo-isoxazolidin-4-yl)-benzamide]
≥ 80%: pest or weed control at 200 ppm (Spodoptera littoralis) | pest or weed control at 200 ppm (Heliothis virescens) | pest or weed control at 200 ppm (Plutella xylostella) | pest or weed control at 200 ppm (Diabrotica balteata) | pest or weed control at 12.5 ppm (Myzus persicae) | pest or weed control at 200 ppm (Thrips tabaci) | pest or weed control at 200 ppm (Tetranychus urticae)

CCN1OC[C@@H](NC(=O)c2ccc(C3=NOC(c4cc(Cl)c(Br)c(Cl)c4)(C(F)(F)F)C3)cc2C)C1=O (stereo partly drawn) [Compound C2, 4-[5-(3,5-Dichloro-4-bromo-phenyl)-5-trifluoromethyl-4,5-dihydro-isoxazol-3-yl]-2-methyl-N-((R)-2-ethyl-3-oxo-isoxazolidin-4-yl)-benzamide]
≥ 80%: pest or weed control at 200 ppm (Spodoptera littoralis) | pest or weed control at 200 ppm (Heliothis virescens) | pest or weed control at 200 ppm (Plutella xylostella) | pest or weed control at 200 ppm (Diabrotica balteata) | pest or weed control at 12.5 ppm (Myzus persicae) | pest or weed control at 200 ppm (Thrips tabaci) | pest or weed control at 200 ppm (Tetranychus urticae)

CCN1OC[C@@H](NC(=O)c2ccc(C3=NOC(c4cc(Cl)cc(Cl)c4)(C(F)(F)F)C3)cc2C)C1=O (stereo partly drawn) [Compound B6, 4-[5-(3,5-Dichloro-phenyl)-5-trifluoromethyl-4,5-dihydro-isoxazol-3-yl]-2-methyl-N-((R)-2-ethyl-3-oxo-isoxazolidin-4-yl)-benzamide]
≥ 80%: pest or weed control at 200 ppm (Spodoptera littoralis) | pest or weed control at 200 ppm (Heliothis virescens) | pest or weed control at 200 ppm (Plutella xylostella) | pest or weed control at 200 ppm (Diabrotica balteata) | pest or weed control at 12.5 ppm (Myzus persicae) | pest or weed control at 200 ppm (Thrips tabaci) | pest or weed control at 200 ppm (Tetranychus urticae)
